{
  "source": "patent US10570124B2",
  "about": "“Deoxycytidine kinase binding compounds” (THE REGENTS OF THE UNIVERSITY OF CALIFORNIA, priority 2016, dated 2020)",
  "key": {"[1]": {"system": "p185BCR-ABL/Arf-/- pre-B ALL cells", "test": "Acute lymphoblastic leukemia (ALL) model, bioluminescence imaging", "format": "in vivo, NSG mice", "settings": "50 mg/kg, days 4, 6, 8, 11 after inoculation", "procedure": "The efficacy of Compound 9R and (R)-DI-82 single agent therapy against short-term cultures of murine BCR-ABL (p185), Arf^−/− pre-B ALL cells (p185^BCR-ABL/Arf^−/−) was assessed. This assay was previously described in Boulos, N. et al., 2011. “Chemotherapeutic agents circumvent emergence of dasatinib-resistant BCR-ABL kinase mutations in a precise mouse model of Philadelphia chromosome-positive acute lymphoblastic leukemia, Blood, 117:3585-3595 and Nathanson, D. 2014 “Co-targeting of convergent nucleotide biosynthetic pathways for leukemia eradication” J. Exp. Med. 211(3): 473-486, all of which are incorporated herein by reference.\nBioluminescent imaging and data analysis were performed using a Xenogen IVIS-200 system and Living Image Version 3.01 software (Caliper Life Sciences). […] Total flux measurements (photons/second) were quantified over the whole-animal body or a contour drawn around a target organ. […]\nTo evaluate the efficacy of Compound 9R and (R)-DI-82 in an in vivo B-ALL model, firefly luciferase—marked p185^BCR-ABL/Arf^−/− cells were inoculated intravenously in NSG mice. 4 days, 6 days, 8 days and 11 days after inoculation, bioluminescence imaging (BLI) of firefly luciferase-marked p185^BCR-ABL/Arf^−/− ALL-bearing NSG mice treated with 50 mg/kg compound 9R or 50 mg/kg (R)-DI-82 were measured. […]"}, "[2]": {"target": "T1, dCK (Homo sapiens, UniProt P27707)", "T1 construct": "endogenous in cells; host or cells: CEM cells", "T1 sequence (P27707 whole entry)": "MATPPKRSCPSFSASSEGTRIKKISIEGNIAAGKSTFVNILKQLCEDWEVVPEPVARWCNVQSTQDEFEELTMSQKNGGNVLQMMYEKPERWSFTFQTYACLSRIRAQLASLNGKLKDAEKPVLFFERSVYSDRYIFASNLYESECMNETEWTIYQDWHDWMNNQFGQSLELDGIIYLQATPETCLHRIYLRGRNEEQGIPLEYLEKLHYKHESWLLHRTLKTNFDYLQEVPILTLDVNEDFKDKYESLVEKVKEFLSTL", "test": "Inhibition of [3H]-deoxycytidine (dCyd) uptake by CEM cells", "format": "cell-based", "settings": "read-out: dCKi-IC-50", "procedure": "50,000 CEM cells/well were added to Millipore MultiScreen GV 96 well plates. Cells were resuspended at […] and incubated for 30 minutes at 37° C. The drug dilution plate was prepared by starting with an initial drug concentration of 10 mM in DMSO, and proceeding to make 1:5 dilutions for drug. […] and mixed by pipetting 10 times before removing 10 uL for next well (1:5 serial dilutions). The media and tritiated deoxycytidine was mixed together. […] of media/probe mixture was added to each well of an Optiplate. […] from drug plate was added to each well in the Optiplate to obtain drug/media/probe mixture and mixed. […] of drug/media/probe mixture from Optiplate was added to the cell plate and incubate at 37° C. for 1 hour. The cell plate was placed on vacuum to aspirate, and then washed with ice cold PBS: […] 1×PBS 4 times. The backing of the plate was peeled off, and the plate was placed in dryer for at least 30 minutes or until dry at 37° C. […] Scintillation fluid per well was added, and the plate was sealed with clear plate seal. The plate was read on the Microbeta instrument."}, "[3]": {"system": "HUKEMIA Acute Myeloid Leukemia model AM-7577", "test": "Acute myeloid leukemia study, HUKEMIA model AM-7577 in NOD/SCID mice", "format": "in vivo, Mus Musculus", "settings": "for ILS (increase in life-span): vs vehicle group", "procedure": "In this study, NOD/SCID mice were injected (i.v.) with cells from a human donor diagnosed with AML (IDH2, FLT3-ITD, DNMT3A, and CEBPA mutations identified). Tumor burden was assessed by evaluation of human CD45 positive leukemia cells using FACS. The primary end point was animal survival. Median survival time (MST) and increase in life-span (ILS) were calculated for all animals.\nThe animals were inoculated HUKEMIA® Model AM-7577. The vehicle and treatment injections were started on Day 9 post cell inoculation Day 10 post cell inoculation, respectively.\nWeekly Monitoring: Body weight was monitored twice a week. Human leukemia cells was detected by FACS weekly by CD45.\nEndpoints and/or Termination: The end points varied according to the tumor burden growth in Vehicle group. The major end point was animal survival. The survival of all animals was followed and median survival time (MST) was calculated for each group. The increase in life-span (ILS) was calculated as follows: ILS (%)=100×[(Median Survival Time of drug treated group/Median Survival Time of vehicle group)−1](%).\nStatistical Analysis: Data was evaluated using one way ANOVA. All data was analyzed using Prism 5.0 and IBM SPSS Statistics 19.0. p<0.05 was considered to be statistically significant."}, "[4]": {"target": "dCK (Mus musculus, UniProt P43346)", "sequence (P43346 whole entry)": "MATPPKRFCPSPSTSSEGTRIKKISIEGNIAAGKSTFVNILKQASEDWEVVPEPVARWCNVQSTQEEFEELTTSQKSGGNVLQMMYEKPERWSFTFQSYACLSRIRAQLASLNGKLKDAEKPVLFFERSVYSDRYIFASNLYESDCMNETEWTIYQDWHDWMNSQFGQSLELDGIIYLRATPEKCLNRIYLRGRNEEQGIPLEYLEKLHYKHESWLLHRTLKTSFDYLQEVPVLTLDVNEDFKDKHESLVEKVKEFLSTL", "test": "Inhibition of dCK activity in vivo by [18F]L-FAC PET/CT imaging", "settings": "mice, IP injection, [18F]L-FAC 4 h after treatment", "quoted_text": "[^18F]L-FAC PET/CT scans were performed as described in Shu, C."}},
  "note": "“Also recorded” adds a separate entry of the source. Where two headings read alike, the source gives them in different places.",
  "data": [
    {"smiles": "COc1ccc(-c2nc([C@@H](C)Sc3nc(N)cc(N)n3)c(C)s2)cc1OCCNS(C)(=O)=O", "note": "[(R)-DI-82, (R)—N-(2-(5-(4-(1-(4,6-diaminopyrimidin-2-ylthio)ethyl)-5-methylthiazol-2-yl)-2-methoxyphenoxy)ethyl)methanesulfonamide]", "values": [
      {"measurement": "efficacy in the p185BCR-ABL/Arf-/- ALL model (bioluminescence)", "setting": "[1]", "value": "show efficacy"}
    ]},
    {"smiles": "COc1ccc(-c2nc([C@@H](C)Sc3nc(N)cc(N)n3)c(C)s2)cc1OCCN1CCOCC1", "note": "[Compound 9R, (R)-2-(1-(2-(4-methoxy-3-(2-morpholinoethoxy)phenyl)-5-methylthiazol-4-yl)ethylthio)pyrimidine-4,6-diamine]", "values": [
      {"measurement": "IC50", "setting": "[2]; [3H]-dCyd uptake", "value": 3.15, "unit": "nM"},
      {"measurement": "IC50", "setting": "[2]; [3H]dC uptake, 0 mg/mL BSA", "value": 4.03, "unit": "nM"},
      {"measurement": "IC50", "setting": "[2]; [3H]dC uptake, 25 mg/mL BSA", "value": 6.87, "unit": "nM"},
      {"measurement": "IC50", "setting": "[2]; [3H]dC uptake, 50 mg/mL BSA", "value": 11.6, "unit": "nM"},
      {"measurement": "tumor burden growth (human CD45 by FACS)", "setting": "[3]; 25 mg/Kg", "value": "significant increase post cells inoculation day 29"},
      {"measurement": "Median survival", "setting": "[3]; 25 mg/kg po BID x 46 days", "value": 49, "unit": "days"},
      {"measurement": "ILS (increase in life-span)", "setting": "[3]; 25 mg/kg po BID", "value": 0, "unit": "%"},
      {"measurement": "tumor burden growth (human CD45 by FACS)", "setting": "[3]; 50 mg/Kg", "value": "slowly increased during Day 29 to Day 44 post cell inoculation"},
      {"measurement": "Median survival", "setting": "[3]; 50 mg/kg po BID x 46 days", "value": 54, "unit": "days"},
      {"measurement": "ILS (increase in life-span)", "setting": "[3]; 50 mg/kg po BID", "value": 10, "unit": "%"},
      {"measurement": "tumor burden growth (human CD45 by FACS)", "setting": "[3]; 100 mg/Kg", "value": "slowly increased during Day 29 to Day 44 post cell inoculation"},
      {"measurement": "Median survival", "setting": "[3]; 100 mg/kg po BID x 46 days", "value": 54, "unit": "days"},
      {"measurement": "ILS (increase in life-span)", "setting": "[3]; 100 mg/kg po BID", "value": 10, "unit": "%"},
      {"measurement": "tumor burden in peripheral blood vs vehicle", "setting": "[3]; 100 mg/kg, day 44 post cell inoculation, p=0.021", "value": "significant antitumor effects"},
      {"measurement": "inhibition of dCK activity in vivo ([18F]L-FAC PET/CT)", "setting": "[4]", "value": "strongly inhibit dCK activity in vivo; also recorded: greater inhibition of dCK"}
    ]},
    {"smiles": "COc1ccc(-c2nc([C@H](C)Sc3nc(N)cc(N)n3)c(C)s2)cc1OCCN1CCOCC1", "note": "[Compound 9S, (S)-2-(1-(2-(4-methoxy-3-(2-morpholinoethoxy)phenyl)-5-methylthiazol-4-yl)ethylthio)pyrimidine-4,6-diamine]", "values": [
      {"measurement": "IC50", "setting": "[2]; [3H]-dCyd uptake", "value": 468, "unit": "nM"}
    ]}
  ]
}
